Assay results taken from article PMC7377239, “Cardiovascular Effects of Polychlorinated Biphenyls and Their Major Metabolites” (Environmental Health Perspectives, 2020).
Read-outs that look alike come from different tables or passages of the source.

Legend:
HUVECs = experiment: High-content imaging cytotoxicity in HUVECs, 24 h; type: cell-based, human; settings: Homo sapiens, HUVEC, 24 h, HUVECs; for viability at 0.01 µM / activity at 0.01 µM / viability at 0.1 µM / activity at 0.1 µM / viability at 1 µM / activity at 1 µM / viability at 10 µM / activity at 10 µM / viability at 100 µM / activity at 100 µM: 0.00 µM = 100.00; for viability at 0.1 µM / activity at 0.1 µM: 0.10 µM; for minimal effective concentration: top concentration 100.00 µM
Summary of the method: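 HUVECs (passages 1–5) were plated at 750 cells/well without fibronectin, grown to a monolayer (3–5 d) and exposed to compounds for 24 h at 37°C, 5% CO2. Hoechst 33342, MitoTracker Orange and calcein AM staining was imaged at 10×; readouts were normalized to 0.5% DMSO vehicle and fit to a four-parameter logistic model.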

[1] = tested on: iCell cardiomyocytes (human iPSC-derived cardiomyocytes); experiment: High-content imaging of cytotoxicity and mitochondrial integrity in iPSC-CMs; type: cell-based; settings: Homo sapiens; for viability at 0.01 µM / activity at 0.01 µM / viability at 0.1 µM / activity at 0.1 µM / viability at 1 µM / activity at 1 µM / viability at 10 µM / activity at 10 µM / viability at 100 µM / activity at 100 µM: Cardiomyocyte, 0.00 µM = 100.00; for viability at 0.1 µM / activity at 0.1 µM: 0.10 µM; for minimal effective concentration: iPSC-CM
Summary of the method: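 Human iPSC-derived cardiomyocytes were seeded on gelatin-coated 384-well plates at 5,000 cells per well and maintained for 12 d. Test chemicals were added as 10μL of 5× solutions to final concentrations of 0.01 to 100μM. Cells were stained with Hoechst 33342 and MitoTracker™ Orange, fixed in formaldehyde, and imaged by confocal high-content microscopy at 10× magnification.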

[2] = 24 hr, read-out: huvec.cyto.24hr
[3] = 24 hr, read-out: huvec.mito.24hr
[4] = 24 hr, read-out: huvec.mitoint.24hr
[5] = 24 hr, read-out: huvec.nma.24hr
[6] = 24 hrs, read-out: huvec.tc.24hrs

Oc1cccc(-c2ccc(Cl)cc2)c1 [3'-OH PCB3] was tested, and the viability at 0.01 µM (HUVECs; [2]) was 89.2%, the activity at 0.01 µM (HUVECs; [3]) was 89.3% and the activity at 0.01 µM (HUVECs; [4]) was 101%. The activity at 0.01 µM (HUVECs; [5]) was 97.3%, the viability at 0.1 µM (HUVECs; [2]) was 100% and the activity at 0.1 µM (HUVECs; [3]) was 100%. The activity at 0.1 µM (HUVECs; [4]) was 111%, the activity at 0.1 µM (HUVECs; [5]) was 92.6% and the viability at 1 µM (HUVECs; [2]) was 94.4%. The activity at 1 µM (HUVECs; [3]) was 93.7%, the activity at 1 µM (HUVECs; [4]) was 104% and the activity at 1 µM (HUVECs; [5]) was 92%. The viability at 10 µM (HUVECs; [2]) was 70.9%, the activity at 10 µM (HUVECs; [3]) was 66.2% and the activity at 10 µM (HUVECs; [4]) was 108%. For the same molecule, the activity at 10 µM (HUVECs; [5]) was 84.9%, the viability at 100 µM (HUVECs; [2]) was 63.7% and the activity at 100 µM (HUVECs; [3]) was 77.8%. It also gave an activity at 100 µM (HUVECs; [4]) of 19.3%, an activity at 100 µM (HUVECs; [5]) of 68.8% and a minimal effective concentration (HUVECs; 24 hr, read-out: huvec.cyto.24hr POD) of 1.1 µM. The minimal effective concentration (HUVECs; 24 hr, read-out: huvec.mito.24hr POD) was 0.97 µM, the minimal effective concentration (HUVECs; 24 hr, read-out: huvec.mitoint.24hr POD) was 41.4 µM and the minimal effective concentration (HUVECs; 24 hr, read-out: huvec.nma.24hr POD) was 0.04 µM. It also gave a viability at 0.01 µM (HUVECs; [6]) of 89.2%, a viability at 0.1 µM (HUVECs; [6]) of 100% and a viability at 1 µM (HUVECs; [6]) of 94.6%. For the same molecule, the viability at 10 µM (HUVECs; [6]) was 71%, the viability at 100 µM (HUVECs; [6]) was 83.9% and the minimal effective concentration (HUVECs; 24 hrs, read-out: huvec.tc.24hrs POD) was 1.1 µM. For the same molecule, the viability at 0.01 µM ([1]; 1.5 h, read-out: cm.cam.90min) was 101%, the activity at 0.01 µM ([1]; 1.5 h, read-out: cm.mii.90min) was 109% and the activity at 0.01 µM ([1]; 1.5 h, read-out: cm.mito.90min) was 101%. The viability at 0.01 µM ([1]; 1.5 h, read-out: cm.tc.90min) was 101%, the viability at 0.1 µM ([1]; 1.5 h, read-out: cm.cam.90min) was 96.5% and the activity at 0.1 µM ([1]; 1.5 h, read-out: cm.mii.90min) was 107%. For the same molecule, the activity at 0.1 µM ([1]; 1.5 h, read-out: cm.mito.90min) was 96.4%, the viability at 0.1 µM ([1]; 1.5 h, read-out: cm.tc.90min) was 96.6% and the viability at 1 µM ([1]; 1.5 h, read-out: cm.cam.90min) was 103%. It also gave an activity at 1 µM ([1]; 1.5 h, read-out: cm.mii.90min) of 98.4%, an activity at 1 µM ([1]; 1.5 h, read-out: cm.mito.90min) of 103% and a viability at 1 µM ([1]; 1.5 h, read-out: cm.tc.90min) of 103%. The viability at 10 µM ([1]; 1.5 h, read-out: cm.cam.90min) was 99.4%, the activity at 10 µM ([1]; 1.5 h, read-out: cm.mii.90min) was 106% and the activity at 10 µM ([1]; 1.5 h, read-out: cm.mito.90min) was 99.2%. It also gave a viability at 10 µM ([1]; 1.5 h, read-out: cm.tc.90min) of 99.2%, a viability at 100 µM ([1]; 1.5 h, read-out: cm.cam.90min) of 0% and an activity at 100 µM ([1]; 1.5 h, read-out: cm.mii.90min) of 0%. It also gave an activity at 100 µM ([1]; 1.5 h, read-out: cm.mito.90min) of 0%, a viability at 100 µM ([1]; 1.5 h, read-out: cm.tc.90min) of 0% and a viability at 0.01 µM ([1]; 24 h, read-out: cm.cam.24hrs) of 91.7%. The activity at 0.01 µM ([1]; 24 h, read-out: cm.mii.24hrs) was 99.6%, the activity at 0.01 µM ([1]; 24 h, read-out: cm.mito.24hrs) was 88.3% and the viability at 0.01 µM ([1]; 24 h, read-out: cm.tc.24hrs) was 91.6%. For the same molecule, the viability at 0.1 µM ([1]; 24 h, read-out: cm.cam.24hrs) was 99.1%, the activity at 0.1 µM ([1]; 24 h, read-out: cm.mii.24hrs) was 109% and the activity at 0.1 µM ([1]; 24 h, read-out: cm.mito.24hrs) was 97.5%. It also gave a viability at 0.1 µM ([1]; 24 h, read-out: cm.tc.24hrs) of 98.9%, a viability at 1 µM ([1]; 24 h, read-out: cm.cam.24hrs) of 104% and an activity at 1 µM ([1]; 24 h, read-out: cm.mii.24hrs) of 92.4%. The activity at 1 µM ([1]; 24 h, read-out: cm.mito.24hrs) was 101%, the viability at 1 µM ([1]; 24 h, read-out: cm.tc.24hrs) was 104% and the viability at 10 µM ([1]; 24 h, read-out: cm.cam.24hrs) was 98%. It also gave an activity at 10 µM ([1]; 24 h, read-out: cm.mii.24hrs) of 98.8%, an activity at 10 µM ([1]; 24 h, read-out: cm.mito.24hrs) of 97.5% and a viability at 10 µM ([1]; 24 h, read-out: cm.tc.24hrs) of 98.6%. It also gave a viability at 100 µM ([1]; 24 h, read-out: cm.cam.24hrs) of 0.0471%, an activity at 100 µM ([1]; 24 h, read-out: cm.mii.24hrs) of 0% and an activity at 100 µM ([1]; 24 h, read-out: cm.mito.24hrs) of 0%. The viability at 100 µM ([1]; 24 h, read-out: cm.tc.24hrs) was 0.09%, the minimal effective concentration ([1]; 1.5 h, read-out: cm.cam.90min POD) was 16 µM and the minimal effective concentration ([1]; 1.5 h, read-out: cm.mii.90min POD) was 35 µM. The minimal effective concentration ([1]; 1.5 h, read-out: cm.mito.90min POD) was 15 µM, the minimal effective concentration ([1]; 1.5 h, read-out: cm.tc.90min POD) was 14.8 µM and the minimal effective concentration ([1]; 24 h, read-out: cm.cam.24hrs POD) was 14.1 µM. The minimal effective concentration ([1]; 24 h, read-out: cm.mii.24hrs POD) was 23 µM, the minimal effective concentration ([1]; 24 h, read-out: cm.mito.24hrs POD) was 14 µM and the minimal effective concentration ([1]; 24 h, read-out: cm.tc.24hrs POD) was 15.6 µM.
